From patent US20210046084A1, “TREATMENT OF ADVANCED ESTROGEN RECEPTOR POSITIVE BREAST CANCER” (ESTETRA SPRL, priority 2018, published 2021)
Where two headings read alike, the source gives them in different places.

What was measured:
[1] = system: long term estrogen deprived MCF7 breast cancer cells (LTED cells); experiment: Growth of long term estrogen deprived MCF7 cells, cell count analysis; format: cell-based; settings: for Cell number per well: LTED cells, count on Day 7, control 5.36
Protocol: In order to assess the potential of an estetrol component to inhibit the growth of estrogen deprived breast cancer cells, in vitro studies in long term estrogen deprived MCF7 breast cancer cells (LTED cells) were conducted. LTED cells are deprived of estrogen, making them a suitable in vitro model to study drug effects in women who have been using estrogen activity suppressors for a long time.
LTED cells were plated in 6-well plates at a density of 30,000 cells per well. The cells were maintained in phenol red free IMEM with 5% charcoal stripped FBS (DCC-FBS). On Day 3, the medium was replaced with fresh phenol red free IMEM with 5% DCC-FBS. The cells were then exposed to 6 different concentrations of estetrol ranging from 10^−12 M to 10^−7 M or to ethanol as vehicle control. The final vehicle concentration was 0.1% ethanol for all experiments. Each treatment was made in duplicate.
On Day 5, the medium was changed and on Day 7 plates were subjected to a cell count analysis.

[2] = Plasma levels and tolerability of estetrol after daily oral administration in female patients; format: in vivo, human; settings: for Trough plasma level: average of Day 7 and Day 14; for Cmax: human, plasma, read-out: Cmax plasma level
Protocol: For each group dosed at 2, 10, 20 and 40 mg estetrol daily (oral administration), 9 to 10 female patients were tested for their plasma content in estetrol at Day 7 and at Day 14. For each dose group, the average trough level of all patients across both days was calculated.

[3] = system: ER+ locally advanced and/or metastatic breast cancer; experiment: Phase I/IIa dose-escalation study of E4 in advanced breast cancer (patient of Example 4); format: in vivo, human; settings: 20 mg E4 per day oral, 12 weeks
Protocol: An open-label, phase I/11a trial, dose-escalation study with a 3+3 cohort design is carried out to determine the recommended dose of E4 for the treatment of patients with advanced breast cancer. After completing the phase I part of the study (i.e. 4 weeks of treatment), patients receive further treatment for 8 weeks at their individual phase I dose level (phase IIa part of the study). Patients are treated for 12 weeks. Treatment continues after 12 weeks of treatment until the patient is withdrawn from the study either due to unacceptable adverse events (AEs) or disease progression. These patients are followed up according to clinical practice including radiological tumour assessments.
In total at least 9 patients with ER+ locally advanced and/or metastatic breast cancer having exhausted all treatment options are enrolled in the study. Patients are at least 5 years postmenopausal and have failed anti-estrogen treatment with tamoxifen and aromatase inhibitor because the cancer has become resistant to treatment with tamoxifen or aromatase inhibitor, or because the patient has discontinued treatment due to unacceptable side-effects. No treatment with fulvestrant is allowed within 6 months prior to the start of the E4 treatment.
• to assess quality of life in advanced breast cancer patients treated with E4, using specific questions on estrogen deficiency symptoms; • to assess preliminary anti-tumour response of E4 in patients with advanced breast cancer, according to RECIST 1.1 at the end of the study (i.e. after 12 weeks); • to assess the trough (Cmin) levels of E4 in patients with advanced breast cancer, by measuring E4 plasma concentrations before dosing at different time points during the study.
• to evaluate the safety profile of E4 in patients with advanced breast cancer by: • Performing routine laboratory parameters; • Performing physical examination; • Measuring vital signs; • Measuring electrocardiograms (ECGs); • Recording and monitoring of incidence and severity of clinical AEs and SAEs; • Radiological tumour assessments.
After completing the phase I part of the study (i.e. 4 weeks of treatment), patients receive further treatment for 8 weeks at their individual phase I dose level (phase IIa part of the study). The phase IIa part of the study includes explorative efficacy assessments to evaluate potential anti-tumour effects of E4 by RECIST criteria based on evaluation of pre- and end of treatment imaging.
Treatment is escalated in doses of 20 mg, 40 mg and 60 mg E4 across cohorts according to the 3+3 design until the non-tolerable dose is determined or the maximum anticipated dose (MAD) of 60 mg is reached. Patients are treated once daily with an oral administration of E4. […]

[4] = molecular target: T1, SHBG (Homo sapiens, UniProt P04278); settings: cited from earlier work
T1 sequence (P04278 30-402): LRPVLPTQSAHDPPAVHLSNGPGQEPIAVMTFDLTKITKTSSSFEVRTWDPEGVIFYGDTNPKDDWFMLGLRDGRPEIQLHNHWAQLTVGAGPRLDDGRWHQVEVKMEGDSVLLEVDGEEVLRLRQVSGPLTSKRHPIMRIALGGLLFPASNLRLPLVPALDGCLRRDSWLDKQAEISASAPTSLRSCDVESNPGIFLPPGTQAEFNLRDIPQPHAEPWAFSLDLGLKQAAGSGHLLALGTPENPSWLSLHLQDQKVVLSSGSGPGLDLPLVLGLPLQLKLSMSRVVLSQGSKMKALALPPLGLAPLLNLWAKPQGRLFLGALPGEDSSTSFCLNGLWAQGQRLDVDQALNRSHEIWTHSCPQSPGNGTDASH

## C[C@]12CC[C@@H]3c4ccc(O)cc4CC[C@H]3[C@@H]1[C@@H](O)[C@@H](O)[C@@H]2O [estetrol, estra-1,3,5(10)-triene-3,15α,16α,17β-tetrol]
[1]; 10^−7 M estetrol
  Cell number per well: 0.49 ×10^5
[1]; 10^−8 M estetrol
  Cell number per well: 0.59 ×10^5
[1]; 10^−9 M estetrol
  Cell number per well: 0.56 ×10^5
[1]; 10^−10 M estetrol
  Cell number per well: 0.63 ×10^5
[1]; 10^−11 M estetrol
  Cell number per well: 3.62 ×10^5
[1]; 10^−12 M estetrol
  Cell number per well: 5.58 ×10^5
[1]; 10^−12 M to 10^−7 M
  Inhibition of growth of LTED cells: able to inhibit the growth of LTED cells
[1]; no further inhibition at higher concentrations
  Concentration at which peak inhibition of LTED cell growth is observed: 10^−10 M
[2]; 2 mg daily oral dose
  Trough plasma level: 240 pg/mL
  Cmax: 1.3 ng/mL
[2]; 10 mg daily oral dose
  Cmax plasma level: 9,500 pg/mL
[2]; 20 mg daily oral dose
  Trough plasma level: 1,950 pg/mL
  Cmax: 23.5 ng/mL
[2]; 40 mg daily oral dose
  Trough plasma level: 5,070 pg/mL
  Cmax: 82.7 ng/mL
[2]; 2, 10, 20 and 40 mg daily oral
  Tolerability: well tolerated
[3]
  Effect on quality of life (QOL): advantageous effect
[3]; only one related AE, patient
  Adverse event considered related to treatment: breast tenderness with mild intensity
[3]; patient
  Tolerability of treatment: tolerated the treatment very well
[3]; progressive disease at start
  Tumour burden during treatment: remained stable
[4]
  Binding to SHBG: does not bind to SHBG

## C[C@]12CC[C@@H]3c4ccc(O)cc4CC[C@H]3[C@@H]1CC[C@@H]2O [estradiol, 17beta-estradiol, reference compound]
[4]; Hammond G L et al., Climacteric 2008
  Binding to SHBG (affinity): about 40%
